The results in this text go back to patent publication US12139478B2, “Compounds, compositions and methods” (Denali Therapeutics Inc., priority 2017, dated 2024).

Each structure is given as a SMILES string. Where two headings read alike, the source gives them in different places. Where only a bound is given, the exact number is not on record here.

The experiment deals with ATF4 translation. In words: ATF4 Nano Luciferase reporter integrated stress response (ISR) assay in H4 ATF4-NLuc cells. The format is cell-based, human. As to conditions: H4 ATF4-NLuc (clone 17) cells, compound 30 minutes, then sodium arsenite for 6 additional hours, luminescence readout. An excerpt: Cellular stress leads to activation of the integrated stress response pathway through one of four eukaryotic initiation factor 2a kinases and halts global translation, while allowing for the translation of select transcripts like ATF4 (activating transcription factor 4) that are important for the response to cellular stress. During normal conditions, small open reading frames (ORFs) in the 5′ UTR of ATF4 occupy the ribosome and prevent translation of the coding sequence of ATF4. During stress conditions however, the ribosome scans past these upstream ORFs and preferentially begins translation at the coding sequence of ATF4. In this way, the translation, and thus protein level of ATF4 is a readout of ISR pathway activation. Thus, a fusion of the uORFs and the beginning of the coding sequence of ATF to a common cellular reporter like nano-luciferase allows for a sensitive and high-throughput readout of ISR pathway activity.
Compounds as provided herein were tested in the following assay. The ATF4 Nano Luciferase reporter was constructed by fusing the human full length 5′ untranslated region (5′-UTR) and a small portion of the coding sequence of the ATF4 gene upstream of the Nano Luciferase (NLuc) coding sequence lacking it's start codon. Specifically, nucleotides +1 through +364 (relative to the transcriptional start site) of ATF4 transcript variant 2 (NCBI NM_182810.2) flanked 5′ by EcoRI and 3′ by BamHI restriction enzyme sites were synthesized and cloned into the EcoRI/BamHI cloning sites of pLVX-EF1a-IRES-Puro lentivirus vector (Clontech). Lentiviral particles were produced with Lenti-X single shots (VSV-G, Clontech) according to the manufacturer's instructions and used to transduce a human H4 neuroglioma cell line (ATCC HTB-148). H4 cells were selected with 1.25 μg/mL Puromycin, and clonal cell lines generated by limiting dilution. We utilized this cell line to generate an integrated stress response (ISR) assay to evaluate the activity of ISR pathway inhibitors via luminescence readout. The H4 ATF4-NLuc (clone 17) cell line is plated at a density of […] in 96-well or 384-well respectively in DMEM+[…]. 24-hours later test compounds diluted in dimethyl sulfoxide (DMSO) are added for 30 minutes at 37° C., followed by ISR pathway activation with […] sodium arsenite aqueous solution for 6 additional hours. Nano Glo luciferase reagent (N1150, Promega) is added according to manufacturer instructions and the luminescence signal (corresponding to the level of ATF4 translation and thus ISR pathway activation) is read with a standard plate reader with luminescence detection capabilities. […] In the tables below, activity of the tested compounds is provided, and in Table 3 as follows: […]; ++=IC50 1-10 μM; +=IC50>10 μM.
In general terms: Reporter assays use an easily measured gene product as a stand-in for the process of interest.

[1] abbreviates: Homo sapiens, 0.5 h, read-out: Activity.
Setting [2] is: Homo sapiens, 0.5 h, read-out: Biological Example 1 (ATF4 translation, IC50 nM).

`O=C(COc1ccc(Cl)cc1)N[C@@H]1CC[C@@H](C(O)COC2CC(OC(F)(F)F)C2)OC1` (single isomer, unassigned) [Example 63]: the IC50 reads like this: under setting [1], under 1000 nM; under setting [2], 3.9 nM.
Turning to `O=C(COc1ccc(Cl)cc1)N[C@@H]1CC[C@@H](C(O)COC2CC(OC(F)(F)F)C2)OC1` (single isomer, unassigned) [Example 64], the IC50 (read-out: Activity) was under 1000 nM.
For the compound `O=C(N[C@@H]1CC[C@@H](c2nnc(C3CC(OC(F)(F)F)C3)o2)OC1)[C@H]1CCc2cc(F)ccc2O1` (single isomer, unassigned) [Example 65], the IC50 runs as follows: under setting [1], under 1000 nM; under setting [2], 8.5 nM.
`O=C(COc1ccc(Cl)c(F)c1)N[C@@H]1CC[C@@H](c2nnc(C3C[C@H]3COC(F)(F)F)o2)OC1` (single isomer, unassigned) [Example 69]: the IC50 under setting [1] is under 1000 nM.
In the case of `O=C(COc1ccc(Cl)c(F)c1)N[C@@H]1CC[C@@H](c2nnc(C3C[C@H]3COC(F)(F)F)o2)OC1` (single isomer, unassigned) [Example 70], the IC50 is, setting by setting: (read-out: Activity) under 1000 nM; under setting [2], 8 nM.
Regarding `CC(O)(COC1CC(OC(F)(F)F)C1)[C@@H]1CC[C@@H](NC(=O)COc2ccc(Cl)cc2)CO1` (single isomer, unassigned) [Example 71], the IC50 under setting [1] was under 1000 nM.
Turning to `CC(O)(COC1CC(OC(F)(F)F)C1)[C@@H]1CC[C@@H](NC(=O)COc2ccc(Cl)cc2)CO1` (single isomer, unassigned) [Example 72], the IC50 (read-out: Activity) is under 1000 nM.
Regarding `O=C(COc1ccc(Cl)c(F)c1)N[C@@H]1CC[C@@H](c2nnc([C@H]3C[C@@H](OC(F)(F)F)C3)o2)OC1` [Example 1, 2-(4-chloro-3-fluoro-phenoxy)-N-[(3R,6S)-6-[5-[3-cis-(trifluoromethoxy)cyclobutyl]-1,3,4-oxadiazol-2-yl]tetrahydropyran-3-yl]acetamide], under setting [1], the IC50 is under 1000 nM.
With `O=C(COc1ccc(Cl)cc1)N[C@@H]1CC[C@@H](c2nnc([C@H]3C[C@@H](OC(F)(F)F)C3)o2)OC1` [Example 2, 2-(4-chlorophenoxy)-N-[(3R,6S)-6-[5-[3-cis-(trifluoromethoxy)cyclobutyl]-1,3,4-oxadiazol-2-yl]tetrahydropyran-3-yl]acetamide], the IC50 is under 1000 nM under setting [1] and 2.7 nM under setting [2].
Turning to `O=C(COC1CC(OC(F)(F)F)C1)N[C@@H]1CC[C@@H](c2nnc([C@H]3C[C@@H](OC(F)(F)F)C3)o2)OC1` (stereo partly drawn) [Example 3, 2-[3-cis-(trifluoromethoxy)cyclobutoxy]-N-[(3R,6S)-6-[5-[(cis)-3-(trifluoromethoxy)cyclobutyl]-1,3,4-oxadiazol-2-yl]tetrahydropyran-3-yl]acetamide], the IC50 under setting [1] is under 1000 nM.
Still for that read-out and setting: as for `O=C(N[C@@H]1CC[C@@H](c2nnc([C@H]3C[C@@H](OC(F)(F)F)C3)o2)OC1)[C@H]1C[C@@H]1COC(F)(F)F` [Example 4, (1R,2R)—N-[(3R,6S)-6-[5-[3-cis-(trifluoromethoxy)cyclobutyl]-1,3,4-oxadiazol-2-yl]tetrahydropyran-3-yl]-2-(trifluoromethoxymethyl)cyclopropanecarboxamide], the figure is 1000 to 10000 nM; as for `O=C(COC1CC(OC(F)(F)F)C1)NC12CCC(c3nnc([C@H]4C[C@@H](OC(F)(F)F)C4)o3)(CC1)OC2` (stereo partly drawn) [Example 14, 2-[3-cis-(trifluoromethoxy)cyclobutoxy]-N-[1-[5-[3-cis-(trifluoromethoxy)cyclobutyl]-1,3,4-oxadiazol-2-yl]-2-oxabicyclo[2.2.2]octan-4-yl]acetamide], under 1000 nM; as for `O=C(COC1CC(OC(F)(F)F)C1)N[C@@H]1CC[C@@H](c2cnn([C@H]3C[C@@H](OC(F)(F)F)C3)n2)OC1` (stereo partly drawn) [Example 17, 2-[3-cis-(trifluoromethoxy)cyclobutoxy]-N-[(3R,6S)-6-[2-[3-cis-(trifluoromethoxy)cyclobutyl]triazol-4-yl]tetrahydropyran-3-yl]acetamide], under 1000 nM.
The same measure, in the same setting: as for `O=C(COC1CC(OC(F)(F)F)C1)NC1CC[C@@H](c2cn([C@H]3C[C@@H](OC(F)(F)F)C3)nn2)OC1` (stereo partly drawn) [Example 18, 2-[3-cis-(trifluoromethoxy)cyclobutoxy]-N-[(3R,6S)-6-[1-[3-cis-(trifluoromethoxy)cyclobutyl]triazol-4-yl]tetrahydropyran-3-yl]acetamide], the figure is under 1000 nM.
Turning to `O=C(COC1CC(OC(F)(F)F)C1)N[C@@H]1CC[C@@H](c2nnc(-c3ccc(Cl)c(F)c3)o2)OC1` (stereo partly drawn) [Example 19, N-[(3R,6S)-6-[5-(4-chloro-3-fluoro-phenyl)-1,3,4-oxadiazol-2-yl]tetrahydropyran-3-yl]-2-[3-cis-(trifluoromethoxy)cyclobutoxy]acetamide], the IC50 reads like this: under setting [1], under 1000 nM; under setting [2], 29.5 nM.
Consider `O=C(COc1ccc(F)cc1)N[C@@H]1CC[C@@H](c2nnc(C3CC(OC(F)(F)F)C3)o2)OC1` (stereo partly drawn) [Example 20, 2-(4-fluorophenoxy)-N-[(3R,6S)-6-[5-[3-cis-(trifluoromethoxy)cyclobutyl]-1,3,4-oxadiazol-2-yl]tetrahydropyran-3-yl]acetamide], for which the IC50 under setting [1] was under 1000 nM.
Take `O=C(COc1ccc(Cl)c(F)c1)NC12CCC(c3nnc([C@H]4C[C@@H](OC(F)(F)F)C4)o3)(CC1)OC2` [Example 21, 2-(4-chloro-3-fluoro-phenoxy)-N-[1-[5-[3-cis-(trifluoromethoxy)cyclobutyl]-1,3,4-oxadiazol-2-yl]-2-oxabicyclo[2.2.2]octan-4-yl]acetamide]: the IC50 under setting [1] is under 1000 nM and the IC50 under setting [2] came to 4 nM.
`O=C(COc1ccc(F)cc1)NC12CCC(c3nnc([C@H]4C[C@@H](OC(F)(F)F)C4)o3)(CC1)OC2` [Example 22, 2-(4-fluorophenoxy)-N-[1-[5-[3-cis-(trifluoromethoxy)cyclobutyl]-1,3,4-oxadiazol-2-yl]-2-oxabicyclo[2.2.2]octan-4-yl]acetamide]: the IC50 under setting [1] is under 1000 nM.
Same read-out and setting: as for `COC(=O)[C@@H]1CC[C@@H](NC(=O)COc2ccc(Cl)cc2)CO1` [Example 23, Methyl (2S,5R)-5-[[2-(4-chlorophenoxy)acetyl]amino]tetrahydropyran-2-carboxylate], the figure is 1000 to 10000 nM.
In the case of `O=C(COc1ccc(F)c(F)c1)N[C@@H]1CC[C@@H](c2nnc([C@H]3C[C@@H](OC(F)(F)F)C3)o2)OC1` [Example 24, 2-(3,4-difluorophenoxy)-N-((3R,6S)-6-(5-(3-cis-(trifluoromethoxy)cyclobutyl)-1,3,4-oxadiazol-2-yl)tetrahydro-2H-pyran-3-yl)acetamide], the IC50 reads like this: under setting [1], under 1000 nM; under setting [2], 10.5 nM.
As for `O=C(COc1ccc(F)c(F)c1)NC12CCC(c3nnc([C@H]4C[C@@H](OC(F)(F)F)C4)o3)(CC1)OC2` [Example 25, 2-(3,4-difluorophenoxy)-N-[1-[5-[3-cis-(trifluoromethoxy)cyclobutyl]-1,3,4-oxadiazol-2-yl]-2-oxabicyclo[2.2.2]octan-4-yl]acetamide], the IC50 under setting [1] was under 1000 nM.
As to `O=C(COc1ccc(Cl)cc1)NC12CCC(c3nnc([C@H]4C[C@@H](OC(F)(F)F)C4)o3)(CC1)OC2` [Example 26, 2-(4-chlorophenoxy)-N-[1-[5-[3-cis-(trifluoromethoxy)cyclobutyl]-1,3,4-oxadiazol-2-yl]-2-oxabicyclo[2.2.2]octan-4-yl]acetamide], the IC50 reads like this: under setting [1], under 1000 nM; under setting [2], 2.2 nM.
Consider `O=C(COc1ccccc1)N[C@@H]1CC[C@@H](c2nnc([C@H]3C[C@@H](OC(F)(F)F)C3)o2)OC1` [Example 27, 2-phenoxy-N-[(3R,6S)-6-[5-[3-cis-(trifluoromethoxy)cyclobutyl]-1,3,4-oxadiazol-2-yl]tetrahydropyran-3-yl]acetamide], for which, under setting [1], the IC50 is under 1000 nM.
Still for that read-out and setting: as for `Cc1ccc(OCC(=O)N[C@@H]2CC[C@@H](c3nnc([C@H]4C[C@@H](OC(F)(F)F)C4)o3)OC2)cc1` [Example 28, 2-(4-methylphenoxy)-N-[(3R,6S)-6-[5-[3-cis-(trifluoromethoxy)cyclobutyl]-1,3,4-oxadiazol-2-yl]tetrahydropyran-3-yl]acetamide], the figure is under 1000 nM.
